According to patent US8546435B2, “Triazole derivatives with improved receptor activity and bioavailability properties as ghrelin antagonists of growth hormone secretagogue receptors” (AEterna Zentaris GmbH, priority 2010, dated 2013):
Where two headings read alike, the source gives them in different places.

Key:
[1] = Stability in liver microsomes; type: in vitro ADME, rat; details: @37° C./1 mg/ml Liver Microsomes, 10 μM
Experimental: Metabolic stability in liver microsomes of different species (in the presence of NADPH, 1 mg/ml microsomal protein) was evaluated at 37° C. over time in triplicates at a test concentration of 10 μM. Loss of parent compound is measured by an HPLC-based UV detection method. For prediction of rat hepatic clearance half-lives (t1/2) were fitted from first-order rate constant k (min^−1) obtained from the slope of time versus In % remaining.

hERG channel = hERG channel (Homo sapiens (Human), UniProt Q12809); assay: Predictor hERG Fluorescence Polarization Assay; type: binding
Chain of hERG channel (Q12809 whole entry): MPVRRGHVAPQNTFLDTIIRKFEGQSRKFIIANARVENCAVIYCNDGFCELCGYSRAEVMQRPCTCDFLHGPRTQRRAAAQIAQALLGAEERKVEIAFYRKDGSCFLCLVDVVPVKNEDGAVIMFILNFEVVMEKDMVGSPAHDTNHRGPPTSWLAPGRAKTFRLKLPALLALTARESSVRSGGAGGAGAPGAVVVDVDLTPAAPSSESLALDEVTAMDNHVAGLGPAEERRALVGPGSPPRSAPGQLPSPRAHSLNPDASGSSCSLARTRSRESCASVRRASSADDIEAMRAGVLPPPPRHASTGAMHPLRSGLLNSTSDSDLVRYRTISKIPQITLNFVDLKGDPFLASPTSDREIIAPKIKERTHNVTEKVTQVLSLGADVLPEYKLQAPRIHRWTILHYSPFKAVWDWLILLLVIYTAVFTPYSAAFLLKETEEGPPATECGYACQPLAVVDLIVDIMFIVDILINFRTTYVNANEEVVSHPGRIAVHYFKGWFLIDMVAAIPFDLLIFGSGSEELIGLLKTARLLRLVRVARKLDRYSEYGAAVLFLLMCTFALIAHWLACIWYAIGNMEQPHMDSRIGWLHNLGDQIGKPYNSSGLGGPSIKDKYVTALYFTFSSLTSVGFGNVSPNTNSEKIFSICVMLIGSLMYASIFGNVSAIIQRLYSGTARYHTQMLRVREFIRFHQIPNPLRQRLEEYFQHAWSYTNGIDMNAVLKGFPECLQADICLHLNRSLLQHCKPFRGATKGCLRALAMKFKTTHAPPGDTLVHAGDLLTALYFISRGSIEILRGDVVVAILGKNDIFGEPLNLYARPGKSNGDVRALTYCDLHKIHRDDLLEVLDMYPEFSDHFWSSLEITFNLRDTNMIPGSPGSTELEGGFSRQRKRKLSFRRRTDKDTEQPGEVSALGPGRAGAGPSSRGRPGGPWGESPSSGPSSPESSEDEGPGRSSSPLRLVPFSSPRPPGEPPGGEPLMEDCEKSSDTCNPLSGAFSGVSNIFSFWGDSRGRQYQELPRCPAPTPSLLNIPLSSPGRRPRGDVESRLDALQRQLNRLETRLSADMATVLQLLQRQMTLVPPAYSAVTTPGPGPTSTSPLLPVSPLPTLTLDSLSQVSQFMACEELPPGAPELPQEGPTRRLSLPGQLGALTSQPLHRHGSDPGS
Source text: The Predictor™ hERG Fluorescence Polarization Assay (Invitrogen, Karlsruhe, GER) determines whether test compounds block the hERG channel [Piper, D. R. et al., Assay Drug Dev Technol. 2008, 6(2):213-23]. The assay uses a membrane fraction containing hERG channel protein (Predictor™ hERG Membrane) and a high-affinity red fluorescent hERG channel ligand, or “tracer” (Predictor™ hERG Tracer Red), in a homogenous, fluorescence polarization (FP)-based format. Compounds that bind to the hERG channel protein (competitors) are identified by their ability to displace the tracer, resulting in a lower fluorescence polarization. The assay was performed according to guidelines of the manufacturer

[2] = target: T1, Human Ghrelin Receptor (GHS-R 1A) (Homo sapiens (Human), UniProt Q92847); assay: Competitive binding, iodinated ghrelin tracer, intact LTK-cells overexpressing GHS-R 1A; details: 60 min at 37° C.
T1 sequence (Q92847 whole entry): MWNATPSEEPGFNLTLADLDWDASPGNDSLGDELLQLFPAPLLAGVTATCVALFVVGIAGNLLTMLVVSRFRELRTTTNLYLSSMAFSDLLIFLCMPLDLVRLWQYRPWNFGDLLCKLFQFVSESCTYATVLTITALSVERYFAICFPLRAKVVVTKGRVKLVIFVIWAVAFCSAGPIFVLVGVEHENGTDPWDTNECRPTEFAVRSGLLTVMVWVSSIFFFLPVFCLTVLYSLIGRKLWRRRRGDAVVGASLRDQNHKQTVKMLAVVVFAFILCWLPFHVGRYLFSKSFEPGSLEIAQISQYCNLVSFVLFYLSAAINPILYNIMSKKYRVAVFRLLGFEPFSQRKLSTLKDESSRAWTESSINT
Source text: (§1) Mouse LTK-cells (ATCC CCL-1.3) were stably transfected with a plasmid containing the CMV minimal promoter (CMVmin) linked to three cAMP response elements (CRE) followed by a luciferase reporter gene. Based on this parental cell line, single cell clones stably overexpressing the human, rat or mouse GHS-R 1A have been established and characterized with respect to suitability for the different assay formats.
For receptor competitive binding studies, iodinated ghrelin was used as a tracer at conditions of about 80% saturation binding. Different concentrations of the test compounds were analyzed for displacement of the tracer. For this purpose, the suspension of intact cells plus tracer mix and different test compound concentrations was layered on top of silicon/paraffin oil, incubated for 60 min at 37° C. and subjected to centrifugation. After freezing in liquid nitrogen the cell pellets were separated from the supernatant by cutting the tubes in the intermediate silicon/paraffin oil section and analyzed by γ-radiation analysis. The amount of unspecific binding was determined by including unlabeled ghrelin at 1 μM final concentration.
(§2) IC50 values were determined by using the GraphPad Prism analysis program (GraphPad Software).
(§3) Values given are either single measurements or mean values of up to nine independent experiments performed in duplicate (binding) or quadruplicate (functional assays) measurements.

[3] = target: T1, Human Ghrelin Receptor (GHS-R 1A); assay: CRE/Luc reporter gene assay, antagonist; type: cell-based; details: 6 h, 1 μM rolipram
Source text: as §1
For the CRE/Luc reporter gene assay, the mouse LTK-cells stably expressing the human GHS-1RA and a luciferase reporter gene under the control of CRE elements and the CMV minimal promoter were incubated for 6 h with 1 μM rolipram in the presence of different concentrations of AEZS-130. Subsequently, cells were lysed and ATP bioluminescence was measured in the luminescence mode on FlexStation3 (Molecular Devices).
as §2, §3

[4] = target: MDR-1 (P-glycoprotein, Pgp) (Homo sapiens (Human), UniProt P08183); assay: Inhibition of MDR1 ATPase (Pgp-Glo assay, SF9 membrane preparations); type: biochemical
Chain of MDR-1 (P-glycoprotein, Pgp) (P08183 whole entry): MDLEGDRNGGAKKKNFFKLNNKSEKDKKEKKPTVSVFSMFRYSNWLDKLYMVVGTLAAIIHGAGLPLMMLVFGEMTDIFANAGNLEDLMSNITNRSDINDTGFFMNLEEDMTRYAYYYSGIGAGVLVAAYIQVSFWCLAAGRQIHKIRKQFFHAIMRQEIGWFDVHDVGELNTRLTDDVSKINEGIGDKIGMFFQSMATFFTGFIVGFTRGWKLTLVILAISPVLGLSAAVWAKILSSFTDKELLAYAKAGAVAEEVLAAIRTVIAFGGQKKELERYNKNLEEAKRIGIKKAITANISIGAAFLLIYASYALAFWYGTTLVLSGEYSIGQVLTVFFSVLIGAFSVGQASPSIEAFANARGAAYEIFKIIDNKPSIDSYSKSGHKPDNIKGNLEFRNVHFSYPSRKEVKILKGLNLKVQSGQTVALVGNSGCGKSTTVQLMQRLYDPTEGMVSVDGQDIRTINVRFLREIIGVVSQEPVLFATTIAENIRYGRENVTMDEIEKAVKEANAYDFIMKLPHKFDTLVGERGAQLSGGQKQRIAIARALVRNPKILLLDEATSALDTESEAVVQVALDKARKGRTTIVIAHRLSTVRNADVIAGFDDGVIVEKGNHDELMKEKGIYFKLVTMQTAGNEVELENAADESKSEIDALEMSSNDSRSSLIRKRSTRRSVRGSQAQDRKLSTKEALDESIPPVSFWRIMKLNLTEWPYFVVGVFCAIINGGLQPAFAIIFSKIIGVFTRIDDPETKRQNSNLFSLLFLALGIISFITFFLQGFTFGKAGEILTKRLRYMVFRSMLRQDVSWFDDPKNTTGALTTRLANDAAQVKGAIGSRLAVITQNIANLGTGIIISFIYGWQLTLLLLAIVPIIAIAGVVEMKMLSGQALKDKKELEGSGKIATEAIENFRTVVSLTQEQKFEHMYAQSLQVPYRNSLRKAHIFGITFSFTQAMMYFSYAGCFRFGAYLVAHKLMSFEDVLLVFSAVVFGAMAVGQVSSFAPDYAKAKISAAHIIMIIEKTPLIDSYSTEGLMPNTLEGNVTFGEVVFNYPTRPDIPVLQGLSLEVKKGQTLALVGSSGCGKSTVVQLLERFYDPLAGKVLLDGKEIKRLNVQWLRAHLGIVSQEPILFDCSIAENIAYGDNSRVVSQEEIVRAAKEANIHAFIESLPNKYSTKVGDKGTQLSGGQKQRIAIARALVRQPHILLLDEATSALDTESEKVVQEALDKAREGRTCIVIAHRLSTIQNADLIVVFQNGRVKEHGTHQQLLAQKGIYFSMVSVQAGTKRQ
Experimental: For detection of MDR-1 (P-glycoprotein, Pgp) ATPase activity commercially available membrane preparations of MDR-1 overexpressing SF9 insect cells (SB-MDR1-Sf9-ATPase Membrane; 2.5 mg/500 μL; Solvo/tebu-bio #168SB-MDR1-Sf9-ATPase) were used. Since transport by MDR-1 is ATP-dependent, ATP consumption indicates transport activity of MDR-1. ATP consumption is detected as a decrease in luminescence from a second reaction with a recombinant firefly luciferase by using the Pgp-Glo™ Assay Kit (Promega # V3591).

[5] = target: T1, Human Ghrelin Receptor (GHS-R 1A); assay: Calcium release, antagonist; type: cell-based; details: 15 minutes preincubation, then ghrelin
Source text: as §1
(§4) For determination of calcium release the respective cell line was loaded with Fluo-4 NW Calcium Assay Kit (Moleculare Probes/Invitrogen # F10741) for 80 min @ 37° C. After 15 minutes of preincubation with different concentrations of the test compounds ghrelin was added and the signal was monitored for 60 seconds by a FlexStation3 microplate reader (Molecular Devices).
as §2, §3

CYP3A4 = CYP3A4 (Homo sapiens (Human), UniProt P08684); assay: CYP3A4 inhibition in human liver microsomes, direct and metabolism-dependent; type: in vitro ADME
Chain of CYP3A4 (P08684 whole entry): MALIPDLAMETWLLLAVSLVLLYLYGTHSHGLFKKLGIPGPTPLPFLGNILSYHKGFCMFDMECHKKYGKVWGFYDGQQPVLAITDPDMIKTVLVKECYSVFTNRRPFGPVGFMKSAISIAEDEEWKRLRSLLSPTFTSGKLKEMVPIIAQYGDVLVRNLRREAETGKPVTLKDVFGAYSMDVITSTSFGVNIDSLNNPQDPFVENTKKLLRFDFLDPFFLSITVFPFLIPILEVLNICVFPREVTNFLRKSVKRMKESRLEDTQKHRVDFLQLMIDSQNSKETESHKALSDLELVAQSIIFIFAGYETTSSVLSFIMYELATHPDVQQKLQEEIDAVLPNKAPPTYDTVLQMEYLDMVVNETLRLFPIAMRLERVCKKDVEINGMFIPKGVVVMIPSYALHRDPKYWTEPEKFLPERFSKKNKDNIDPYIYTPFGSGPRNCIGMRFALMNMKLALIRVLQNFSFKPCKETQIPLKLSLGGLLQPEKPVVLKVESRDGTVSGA
Experimental: Direct and metabolism-dependent inhibition of CYP enzymes are assessed with specific marker substrates by a HPLC-based UV detection method in human liver microsomes. Incubations are carried out as doublets with final concentrations ranging from 0.01 to 200 μM (30 min, 37° C.). Metabolism-dependent inhibition was assessed by incubation for 30 minutes in the presence of NADPH prior to the addition of marker substrate to allow the generation of metabolites. Percent inhibition is plotted against concentration to calculate or extrapolate IC50 values from the sigmoid curve.

[6] = target: Rat Ghrelin Receptor (GHS-R 1A) (Rattus norvegicus (Rat), UniProt O08725); assay: Calcium release, antagonist; type: cell-based; details: 15 minutes preincubation, then ghrelin; read-out: Rat Ghrelin Receptor Antagonist Calcium Release IC50
Chain of Rat Ghrelin Receptor (GHS-R 1A) (O08725 whole entry): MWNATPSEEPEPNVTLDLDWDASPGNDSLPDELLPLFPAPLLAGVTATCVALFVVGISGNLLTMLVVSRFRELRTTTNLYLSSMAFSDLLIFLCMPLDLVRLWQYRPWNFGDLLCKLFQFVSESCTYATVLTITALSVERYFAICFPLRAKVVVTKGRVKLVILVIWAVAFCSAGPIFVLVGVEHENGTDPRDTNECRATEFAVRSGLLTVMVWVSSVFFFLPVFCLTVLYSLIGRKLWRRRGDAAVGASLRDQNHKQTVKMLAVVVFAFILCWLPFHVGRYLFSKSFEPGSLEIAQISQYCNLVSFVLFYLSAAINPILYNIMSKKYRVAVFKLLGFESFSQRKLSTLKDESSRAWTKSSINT
Source text: as §1, §4, §2
(§5) In the following table 1 results obtained for selected compounds of the invention are presented in comparison to compound 50 disclosed in WO07/020,013. Values given are either single measurements or mean values of up to nine independent experiments performed in duplicate (binding) or quadruplicate (functional assays) measurements.

[7] = target: Mouse Ghrelin Receptor (GHS-R 1A) (Mus musculus (Mouse), UniProt Q99P50); assay: Calcium release, antagonist; type: cell-based; details: 15 minutes preincubation, then ghrelin; read-out: Mouse Ghrelin Receptor Antagonist Calcium Release IC50
Chain of Mouse Ghrelin Receptor (GHS-R 1A) (Q99P50 whole entry): as the sequence (O08725 whole entry) above, with P30S, A249S counted along it
Source text: as §1, §4, §2, §5

[8] = CaCo-2 permeability assay; type: in vitro ADME; details: human; for Papp A→B at 2 h: a to b, read-out: CaCo-2 Assay Papp ab; for Papp A→B at 2 h / Papp B→A at 2 h: 3 or 5 μM, 2 hours at 37° C.; for Papp B→A at 2 h: b to a, read-out: CaCo-2 Assay Papp ba; for efflux ratio at 2 h: read-out: CaCo-2 Assay ba/ab
Experimental: For the CaCo-2 permeability assay 80.000 CaCo-2 cells (ATCC HTB-37) were seeded in DMEM supplemented with 10% FCS, 1% Penicillin/Streptomycin and 1% non-essential amino acids per 24 well transwell plate (Corning 3397) and were grown for 21 days by changing the media every second day. On day 21 the medium was replaced by HBSS buffer (Invitrogen #14065) supplemented with 0.25% and 1% BSA for the donor and acceptor compartment, respectively. The compounds were added to the respective donor compartment in a concentration of 3 or 5 μM and were incubated for 2 hours at 37° C. The respective compound concentrations were determined by LC-MS analytics using an API 2000. Data analysis was performed as described by Sun and Pang 2008, Drug Metabolism and Disposition 36, 102-123.

[9] = marker substrate testosteron, 30 minutes preincubation with NADPH, read-out: CYP3A4 Inhibition Testosteron Preincubation EC50
[10] = marker substrate testosteron, direct inhibition, human liver microsomes, read-out: CYP3A4 Inhibition Testosteron EC50

| Structure (SMILES) | Stability in Liver Microsomes Rat % Remaining after 1 h Incubation [1] [%] | hERG Predictor EC50 (hERG channel) | IC50 [2] [nM] | IC50 [3] [nM] | EC50 [4] [nM] | IC50 [5] [nM] | EC50 (CYP3A4; [9]) [nM] | EC50 (CYP3A4; [10]) [nM] | IC50 [6] [nM] | IC50 [7] [nM] | Papp A→B at 2 h [8] [×10⁻⁶ cm/s] | Papp B→A at 2 h [8] [×10⁻⁶ cm/s] | efflux ratio at 2 h [8] | EC50 (CYP3A4; marker substrate midazolam, 30 minutes preincubation with NADPH, read-out: CYP3A4 Inhibition Midazolam Preincubation EC50) [nM] | EC50 (CYP3A4; marker substrate midazolam, direct inhibition, human liver microsomes, read-out: CYP3A4 Inhibition Midazolam EC50) [nM] | Inhibition of MDR1 ATPase EC50 [4] |
| --- | --- | --- | --- | --- | --- | --- | --- | --- | --- | --- | --- | --- | --- | --- | --- | --- |
| COc1ccc(Cn2c([C@@H](Cc3c[nH]c4ccccc34)NC=O)nnc2[C@@H](Cc2c[nH]c3ccccc23)NC(=O)C(C)(C)N)cc1.O=C(O)C(F)(F)F [Cpd 9, 2-Amino-N-[(R)-1-[5-[(R)-1-formylamino-2-(1H-indol-3-yl)-ethyl]-4-(4-methoxy-benzyl)-4H-[1,2,4]triazol-3-yl]-2-(1H-indol-3-yl)-ethyl]-2-methyl-propionamide] | 54.8 | no full dose | 3.2 | 58.6 | 836 | 32.6 | 1500 | 10000 to 30000 |  |  |  |  |  |  |  |  |
| COc1ccc(Cn2c(CCc3c[nH]c4ccccc34)nnc2[C@@H](Cc2ccc3ccccc3c2)NC(=O)OC(C)(C)C)cc1.O=C(O)C(F)(F)F [Cpd 15, {(R)-1-[5-[2-(1H-Indol-3-yl)-ethyl]-4-(4-methoxy-benzyl)-4H-[1,2,4]triazol-3-yl]-2-naphthalen-2-yl-ethyl}-carbamic acid tert-butyl ester] | 37.8 |  | 16.5 | 24.9 | 16300 | 39.9 |  |  |  |  |  |  |  |  |  |  |
| COc1ccc(Cn2c([C@@H](Cc3c[nH]c4ccccc34)NC(C)=O)nnc2[C@@H](Cc2c[nH]c3ccccc23)NC(=O)c2ccccn2)cc1.O=C(O)C(F)(F)F [Cpd 3, Pyridine-2-carboxylic acid [(R)-1-[5-[(R)-1-acetylamino-2-(1H-indol-3-yl)-ethyl]-4-(4-methoxy-benzyl)-4H-[1,2,4]triazol-3-yl]-2-(1H-indol-3-yl)-ethyl]-amide] | 38.5 | no inhibition | 0.6 | 2.2 | 38600 | 2.5 |  |  | 29.9 | 29.2 | 0.37 ± 0.02 | 17.2 ± 0.42 | 51.9 | 980 | 3200 |  |
| CCOC(=O)Cc1nnc([C@@H](Cc2c[nH]c3ccccc23)NC(=O)c2cccnc2)n1Cc1ccc(OC)cc1 [Cpd 1, [5-{(R)-2-(1H-Indol-3-yl)-1-[(pyridine-3-carbonyl)-amino]-ethyl}-4-(4-methoxy-benzyl)-4H-[1,2,4]triazol-3-yl]-acetic acid ethyl ester] |  |  |  | 12.8 |  | 3 |  |  |  |  |  |  |  |  |  |  |
| COc1ccc(Cn2c([C@@H](Cc3c[nH]c4ccccc34)NC(C)=O)nnc2[C@@H](Cc2c[nH]c3ccccc23)NC(=O)C(C)(C)N)cc1.O=C(O)C(F)(F)F [Cpd 8, N-[(R)-1-[5-[(R)-1-Acetylamino-2-(1H-indol-3-yl)-ethyl]-4-(4-methoxy-benzyl)-4H-[1,2,4]triazol-3-yl]-2-(1H-indol-3-yl)-ethyl]-2-amino-2-methyl-propionamide] | 64.3 | no inhibition | 1.4 | 22.4 | 196000 | 19.1 | 900 | 31200 | 1050 | 363 | 0.08 ± 0.08 | 0.74 ± 0.03 | 9.25 |  |  |  |
| COc1ccc(Cn2c([C@@H](Cc3ccccc3)NC(C)=O)nnc2[C@@H](Cc2c[nH]c3ccccc23)NC(=O)[C@@H]2CNCCO2)cc1.O=C(O)C(F)(F)F [Cpd 7, (S)-Morpholine-2-carboxylic acid [(R)-1-[5-((R)-1-acetylamino-2-phenyl-ethyl)-4-(4-methoxy-benzyl)-4H-[1,2,4]triazol-3-yl]-2-(1H-indol-3-yl)-ethyl]-amide] | 82.7 | no inhibition | 3.4 | 9.5 | 1080 | 3.8 | 1100 | 27000 |  |  |  |  |  |  |  |  |
| COc1ccc(Cn2c([C@@H](Cc3ccccc3)NC(C)=O)nnc2[C@@H](Cc2c[nH]c3ccccc23)NC(=O)CO)cc1.O=C(O)C(F)(F)F [Cpd 6, N-[(R)-1-[5-((R)-1-Acetylamino-2-phenyl-ethyl)-4-(4-methoxy-benzyl)-4H-[1,2,4]triazol-3-yl]-2-(1H-indol-3-yl)-ethyl]-2-hydroxy-acetamide] | 27.1 | no inhibition | 3 | 7.8 |  | 2.1 | 1400 | 34300 |  |  |  |  |  |  |  | no inhibition |
